One series concerns MT-4 cells. Put plainly: Cytotoxicity in mock-infected MT-4 cells (MTT). In kind it is cell-based. The procedure: (§1) The biological activity of the compounds was evaluated on lymphoid cell lines MT-4 against the wild strain of HIV-1 NL4-3. The MT-4 cells were briefly infected with the appropriate HIV-1 or the infection was simulated to determine the cytoxicity, in the presence of different concentrations of potential inhibitor compounds. 5 days after the infection a colorimetric method was used that involves using a tetrazole salt (MTT) to evaluate the number of surviving cells. The mutant IRLL98 HIV-1 contains the following mutations in the coding sequence for RT:M41L, D67N, Y181C, M184V, R211K, T215Y (resistance to NRTI) and the mutations K101Q, Y181C, G190A (resistance to NNRTI). The H1V-1 mutants containing multi-NNRTI mutations, K103N or Y188L as mutants were supplied by the Medical Research Council Centralised Facility for AIDS Reagents, Herfordshire, UK.

A further series has as its system HIV-1 mutant Y181L. The series can be described thus: Inhibition of viral proliferation on culture cells (MT-4, MTT), Y181L mutant. The format is cell-based.
The subject of series [1] is wild strain of HIV-1 NL4-3. Put plainly: Inhibition of viral proliferation on culture cells (MT-4, MTT), wild strain. In kind it is cell-based. The protocol:
as §1

A further series deals with HIV-1 mutant K103N. The series can be described thus: Inhibition of viral proliferation on culture cells (MT-4, MTT), K103N mutant. In kind it is cell-based. The procedure:
as §1

Series [2] addresses T1, HIV-1 (recombinant) reverse transcriptase (Human immunodeficiency virus type 1 group M subtype B, UniProt P03366).
T1 construct: 20-50 nM HIV-1 (recombinant) reverse transcriptase
Put plainly: Enzyme test: reverse transcription reaction in vitro with recombinant RT, wild type. The format is biochemical. The protocol: (§2) In a final volume of 25 microlitres the following reagents were mixed: 50 mM Tris-HCl pH 7.5, 0.25 mg/ml BSA, 0.5 mM DTT, 20-50 nM HIV-1 (recombinant) reverse transcriptase, nucleotide substrate dTTP marked radioactively (^3H, 4 Ci/mmol) and nucleic acid (poly(rA)/oligo(dT)). The concentrations of dTTP and poly(rA)/oligo(dT) in standard conditions were 5 μM and 0.5 μM, respectively.
(§3) The reaction mixture is incubated 10 min. at 37° C. and 20 μl are removed and deposited on a GF/C Whatman glass fibre filter measuring 25 mm in diameter. The filters are washed 3 times for 5 min. in 5% trichloroacetic acid and once for 5 min. in absolute alcohol. After being dried, the filters are immersed in a scintillating mixture (Packard) and the acid precipitable radioactivity is measured by a scintillation counter for β-emitting isotopes (Beckman).
(§4) The dose-response curves obtained by means of samples of enzyme activity in the presence of increasing doses of inhibitor were analysed according to the equation E(%)=Emax/([…], where E(%) is the fraction of enzyme activity that is measurable in the presence of each concentration of inhibitor, Emax is the activity in the absence of an inhibitor, I is the concentration of inhibitor. The ID50 was calculated by analysing data using the GraphPad Prism graphic interpolation programme (for Macintosh).

Series [3] in a line: Cytotoxicity in mock-infected MT-4 cells (MTT). In kind it is cell-based. Particulars: human. The protocol:
as §1

Series [4] deals with T2, reverse transcriptase containing the mutation Y181I (Human immunodeficiency virus type 1 group M subtype B, UniProt P03366, Y780I).
T2 construct: cloning the gene of the mutated RT in an expression vector for prokariotic cells; made in house
The series can be described thus: Enzyme test with mutated reverse transcriptase Y181I. The format is biochemical, HIV-1. The procedure:
as §2, §3
(§5) In some experiments, the HIV-1 recombinant reverse transcriptase was substituted by a reverse transcriptase containing the mutations K.103N and Y181I. They were produced by cloning the gene of the mutated RT in an expression vector for prokariotic cells according to the method reported in the literature (Maga G, Amacker M, Ruel N, Hubscher U, Spadari S. Resistance to nevirapine of HIV-1 reverse transcriptase mutants: loss of stabilizing interactions and thermodynamic or steric barriers are induced by different single amino acid substitutions. J Mol Biol. Dec. 19, 1997; 274(5):738-47).
as §4

The target of series [5] is T3, reverse transcriptase containing the mutation K103N (Human immunodeficiency virus type 1 group M subtype B, UniProt P03366, K702N).
T3 construct: cloning the gene of the mutated RT in an expression vector for prokariotic cells; made in house
Put plainly: Enzyme test with mutated reverse transcriptase K103N. In kind it is biochemical, HIV-1. The procedure:
as §2, §3, §5, §4

The next series concerns HIV-1 mutant Y188L. The series can be described thus: Inhibition of viral proliferation on culture cells (MT-4, MTT), Y188L mutant. In kind it is cell-based. The procedure:
as §1

The subject of another series is HIV-1 mutant Y181C. Put plainly: Inhibition of viral proliferation on culture cells (MT-4, MTT), Y181C mutant. Particulars: for EC50: Human immunodeficiency virus 1, read-out: Y181C. In kind it is cell-based. The protocol:
as §1

The mark [6] stands for this setting: Table 1, MT-4 cells, read-out: EC50 NL4-3 wt.
[7] abbreviates: Table 1, recombinant RT wild type, read-out: ID50 WT.
[8] abbreviates: Human immunodeficiency virus 1, MT4, read-out: EC50 Y181L.
The mark [9] stands for this setting: Human immunodeficiency virus 1, NL43, MT4, read-out: EC50 NL4-3 wt.
Setting [10] is: Human immunodeficiency virus 1, MT4, read-out: EC50 K103N.
The mark [11] stands for this setting: Table 2, enzyme test, read-out: WT.
Setting [12] is: Human immunodeficiency virus 1, read-out: Y188L.
Where [13] appears, read: Human immunodeficiency virus 1, NL43, read-out: NL4-3 wt.
The mark [14] stands for this setting: Human immunodeficiency virus 1, read-out: K100N.

Like-named read-outs stand apart in the source and are kept apart here.

This note sets out measurements from patent US20100292260A1, “6-VINYL PYRIMIDINE AND PYRIMIDINONE DERIVATIVES AND THE USE THEREOF” (priority 2005, published 2010).

The compound `C=Cc1cc(N(CC)CC)nc(SCc2ccc(OC)cc2)n1` [6′a] gave a CC50 in the series with MT-4 cells of 33 µM. Also, the EC50 in the series on HIV-1 mutant Y181L (Table 1, MT-4 cells, read-out: EC50 Y181L) was over 35.8 µM; in series [1] (setting [6]), over 33 µM; with HIV-1 mutant K103N (Table 1, MT-4 cells, read-out: EC50 K103N), 3.6 µM.

In the case of `C=Cc1cc(N(CC)CC)nc(S(=O)(=O)Cc2ccc(OC)cc2)n1` [8′], in [2] (setting [7]), the IC50 worked out at 467 µM. In addition, in the series with MT-4 cells, the CC50 was 42.9 µM. In [1] (setting [6]), the EC50 was over 42.9 µM.

Regarding `C=Cc1cc(N(C)C)nc(SC)n1` [Compound 6c], in series [2] (setting [7]), the IC50 is over 400 µM. The CC50 at 5 days in series [3] worked out at 57.4 µM. Also, the EC50 (in the series on HIV-1 mutant Y181L (setting [8]); in [1] (setting [9]); in the series on HIV-1 mutant K103N (setting [10])) was over 128 µM each time.

Regarding `C=Cc1cc(N(C)C)nc(S(C)(=O)=O)n1` [Compound 8a], the “increase in activity in relation to the wild type enzyme” value in series [2] is listed as 2900 times. Also, the “inhibition of the RT at different concentrations of dTTP” value in [2] (FIG. 1) is listed as “decreases with the increase of the concentrations of TTP”. Moreover, the “apparent affinity (Kapp) of the RT for dTTP” value in series [2] (FIG. 2, different concentrations of 8a) is on record as “decreases as the concentration of 8a increases”. Moreover, in series [2] (FIG. 3), the “inhibition of the RT at different concentrations of poly(rA)/oligo(dT)” value was “increase of the capacity thereof to inhibit RT”. The “preferred enzyme form bound” value in series [2] (FIG. 3) was “preferentially binds to the binary complex of the RT with the nucleic acid”. Also, the IC50 in series [2] (setting [7]) came out at 0.022 µM; in series [4], 78 µM; in [5], 28 µM. The “reverse transcriptase ID50 greater than that of MB3B” value in [2] (compared with MB3B) is listed as 3 orders of magnitude. Moreover, the “action mechanism: inhibition of reverse transcriptase” value in series [2] (versus nucleotide substrate) is “competitive with the nucleotide”. Besides, the “activity against enzyme with resistance mutation in position 181, in words” value in series [4] is on record as “significantly active”. For the same compound, in series [3], the CC50 at 5 days is 110 µM. Moreover, in [5], the “activity against enzyme with resistance mutation in position 103, in words” value is “significantly active”. For the same compound, the EC50 (with HIV-1 mutant Y181L (setting [8]); in series [1] (setting [9]); in the series with HIV-1 mutant K103N (setting [10])) was over 110 µM each time. The “activity in cell tests on wild type, in words” value (from here on “activity in cell tests”) in series [1] was “did not show appreciable activity”.

`C=Cc1nc(S(C)(=O)=O)nc(N(C)C)c1I` [Compound 8b]: the IC50 in series [2] (setting [7]) is 275 µM; in series [4], over 400 µM; in [5] it was over 400 µM. Half-maximal cytotoxicity in series [3] (CC50 at 5 days) was put at 22.9 µM. Besides, the EC50 (in the series on HIV-1 mutant Y181L (setting [8]); in series [1] (setting [9]); with HIV-1 mutant K103N (setting [10])) was over 22.9 µM throughout.

Regarding `COc1ccc(C=CCSc2nc(C(C)c3c(Cl)cccc3Cl)c(C)c(=O)[nH]2)cc1` (centres unmarked) [Compound 26g], the IC50 was 0.018 µM in series [2] (setting [11]), over 20 µM in series [4] and over 20 µM in series [5]. In addition, the EC50 with HIV-1 mutant Y188L (setting [12]) came to 1.26 µM; in the series with HIV-1 mutant Y181C, 3.6 µM; in [1] (setting [13]) it was 0.009 µM; in the series on HIV-1 mutant K103N (setting [14]), 2.47 µM. Further, the 50% cytotoxic concentration (CC50) at 5 days in series [3] is over 10.8 µM. The “activity in cell tests” value in series [1] is “nanomolar and subnanomolar activity”.

For `COc1ccc(C=CCSc2nc(Cc3c(F)cccc3F)c(C)c(=O)[nH]2)cc1` [Compound 26l], the IC50 was 0.25 µM in series [2] (setting [11]), over 20 µM in series [4] and over 20 µM in [5]. The EC50 is over 3.93 µM with HIV-1 mutant Y188L (setting [12]), over 3.93 µM in the series with HIV-1 mutant Y181C, 0.043 µM in series [1] (setting [13]) and over 3.93 µM with HIV-1 mutant K103N (setting [14]). This compound also yielded a CC50 at 5 days in [3] of 3.93 µM. Further, the “activity in cell tests” value in [1] is “nanomolar and subnanomolar activity”.

Turning to `COc1ccc(C#CCSc2nc(Cc3c(Cl)cccc3Cl)c(C)c(=O)[nH]2)cc1` [Compound 27c], the EC50 in the series with HIV-1 mutant Y188L (Table 3, cell test, read-out: Y188L) was over 56.2 µM; in [1] (Table 3, cell test, read-out: NLA-3wt), 2.47 µM; in the series on HIV-1 mutant K103N (Table 3, cell test, read-out: K103N), over 56.2 µM. In addition, the CC50 in the series with MT-4 cells (Table 3, read-out: CC50) was over 56.2 µM. The “Y181C, % at given concentration” value in the series on HIV-1 mutant Y181C (Table 3, at 56.18) came to 40% at.

Regarding `CCc1c(Cc2c(Cl)cccc2Cl)nc(SCC=Cc2ccc(OC)cc2)[nH]c1=O` [Compound 26e], the IC50 is 0.056 µM in series [2] (setting [11]), over 20 µM in [4] and over 20 µM in series [5]. The EC50 in the series on HIV-1 mutant Y188L (setting [12]) is over 0.19 µM; in the series on HIV-1 mutant Y181C, over 0.19 µM; in [1] (setting [13]), 0.0015 µM; in the series with HIV-1 mutant K103N (setting [14]), over 0.19 µM. In series [3], the midpoint of cytotoxicity, the CC50 at 5 days, lay at 0.19 µM. The “activity in cell tests” value in series [1] is “nanomolar and subnanomolar activity”.
